In patent US9540366B2, “Ring-fused heterocyclic compound” (Kyowa Hakko Kirin Co., Ltd., priority 2012, dated 2017):
Where a name gives a salt, the structure may show the parent alone. Read-outs that look alike come from different tables or passages of the source.

Target: T1, human Cav3.2 T-type Ca2+ channel (Homo sapiens, UniProt O95180)
T1 construct: expressed in transfected cells; host or cells: KJMGER8 cells (Namalwa cell-derived cell line)
Assay: Inhibitory effect for intracellular calcium response via Cav3.2 T-type Ca2+ channels (FLIPR Calcium 3 Assay Kit)
Type: cell-based

[1] = human Cav3.2-expressing KJMGER8 cells (Namalwa-derived), calcium response induced by 5 mmol/L CaCl2, 3 μmol/L mibefradil as reference, read-out: IC50 for the human Cav3.2 T-type Ca2+ current

T1 sequence (O95180 whole entry): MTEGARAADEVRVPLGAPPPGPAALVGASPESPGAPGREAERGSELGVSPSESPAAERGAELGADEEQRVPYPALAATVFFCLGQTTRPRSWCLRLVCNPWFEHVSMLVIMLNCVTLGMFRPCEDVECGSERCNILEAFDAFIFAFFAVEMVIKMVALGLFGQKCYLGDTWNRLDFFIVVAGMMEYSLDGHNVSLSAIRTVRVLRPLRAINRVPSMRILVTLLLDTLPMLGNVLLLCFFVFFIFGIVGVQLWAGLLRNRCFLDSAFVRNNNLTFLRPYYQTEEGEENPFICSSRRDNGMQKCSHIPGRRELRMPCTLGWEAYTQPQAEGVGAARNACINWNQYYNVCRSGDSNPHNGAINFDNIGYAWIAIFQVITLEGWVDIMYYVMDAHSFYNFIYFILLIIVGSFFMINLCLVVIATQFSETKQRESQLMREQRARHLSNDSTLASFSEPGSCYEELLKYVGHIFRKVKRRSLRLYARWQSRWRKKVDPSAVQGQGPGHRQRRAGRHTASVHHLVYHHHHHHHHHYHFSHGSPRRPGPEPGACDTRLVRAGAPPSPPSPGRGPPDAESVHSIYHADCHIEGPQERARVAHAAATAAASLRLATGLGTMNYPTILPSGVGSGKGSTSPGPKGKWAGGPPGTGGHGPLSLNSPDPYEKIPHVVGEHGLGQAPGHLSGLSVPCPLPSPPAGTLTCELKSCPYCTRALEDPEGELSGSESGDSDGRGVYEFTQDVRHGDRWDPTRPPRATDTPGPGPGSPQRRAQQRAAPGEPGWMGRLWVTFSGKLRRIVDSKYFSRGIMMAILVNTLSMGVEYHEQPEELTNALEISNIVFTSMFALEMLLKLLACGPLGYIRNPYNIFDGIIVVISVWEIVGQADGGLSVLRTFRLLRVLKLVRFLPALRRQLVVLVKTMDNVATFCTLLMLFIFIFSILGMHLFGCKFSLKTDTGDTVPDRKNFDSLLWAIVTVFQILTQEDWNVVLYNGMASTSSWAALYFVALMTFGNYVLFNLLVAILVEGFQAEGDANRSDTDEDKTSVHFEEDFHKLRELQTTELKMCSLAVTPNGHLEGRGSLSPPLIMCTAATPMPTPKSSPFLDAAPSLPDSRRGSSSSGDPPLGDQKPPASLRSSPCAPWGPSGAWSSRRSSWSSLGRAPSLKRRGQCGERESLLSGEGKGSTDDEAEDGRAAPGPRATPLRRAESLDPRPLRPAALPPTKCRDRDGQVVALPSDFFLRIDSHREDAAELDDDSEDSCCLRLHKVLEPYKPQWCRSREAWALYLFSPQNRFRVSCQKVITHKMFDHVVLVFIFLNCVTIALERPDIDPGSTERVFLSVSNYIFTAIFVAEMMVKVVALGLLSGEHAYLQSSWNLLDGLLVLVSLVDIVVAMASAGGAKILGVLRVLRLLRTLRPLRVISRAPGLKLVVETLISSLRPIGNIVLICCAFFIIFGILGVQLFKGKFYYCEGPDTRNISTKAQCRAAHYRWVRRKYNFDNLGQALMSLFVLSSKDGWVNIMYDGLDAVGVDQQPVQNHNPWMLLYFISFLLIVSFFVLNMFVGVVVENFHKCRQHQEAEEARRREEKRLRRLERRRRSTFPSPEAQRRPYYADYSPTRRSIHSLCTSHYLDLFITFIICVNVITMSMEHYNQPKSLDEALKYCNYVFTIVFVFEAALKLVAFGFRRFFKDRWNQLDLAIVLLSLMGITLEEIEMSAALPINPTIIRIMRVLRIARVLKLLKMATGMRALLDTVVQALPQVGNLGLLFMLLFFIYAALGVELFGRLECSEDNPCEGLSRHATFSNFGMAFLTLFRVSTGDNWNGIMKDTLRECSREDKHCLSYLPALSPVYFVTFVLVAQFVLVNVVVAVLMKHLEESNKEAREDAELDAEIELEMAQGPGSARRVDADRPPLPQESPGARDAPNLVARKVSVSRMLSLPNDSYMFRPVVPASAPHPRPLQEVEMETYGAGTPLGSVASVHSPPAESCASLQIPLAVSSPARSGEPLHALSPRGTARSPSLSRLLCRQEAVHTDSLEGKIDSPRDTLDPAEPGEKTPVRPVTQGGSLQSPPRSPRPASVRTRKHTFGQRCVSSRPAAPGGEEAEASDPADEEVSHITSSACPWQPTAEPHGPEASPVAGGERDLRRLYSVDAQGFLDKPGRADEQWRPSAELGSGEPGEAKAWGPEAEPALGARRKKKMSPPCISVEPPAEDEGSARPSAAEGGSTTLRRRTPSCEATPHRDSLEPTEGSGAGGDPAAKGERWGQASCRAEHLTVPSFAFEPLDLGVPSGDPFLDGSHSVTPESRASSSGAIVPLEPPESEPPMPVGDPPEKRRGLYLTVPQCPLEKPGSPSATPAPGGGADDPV

Row | Structure (SMILES) | IC50 | IC50 [1]
1 | [2H]C([2H])([2H])OC(C)(C)c1nc2cc(C(=O)NC3CCOCC3)cc(C)n2c1CC1CCC(F)(F)CC1 [Compound 11, 3-[(4,4-Difluorocyclohexyl)methyl]-2-(2-methoxy-d3-propan-2-yl)-5-methyl-N-(tetrahydro-2H-pyran-4-yl)imidazo[1,2-a]pyridine-7-carboxamide] | ≤ 100 nM | –
2 | Cc1cc(C(=O)NC(C)(C)C)cc2nc(C(C)C)c(CC3CCC(F)(F)CC3)n12 [Compound 219, N-tert-Butyl-3-[(4,4-difluorocyclohexyl)methyl]-2-isopropyl-5-methylimidazo[1,2-a]pyridine-7-carboxamide] | ≤ 100 nM | –
3 | O=C(NCC(=O)N1CC(F)(F)C1)c1cc(Cl)n2c(CC3CCC(F)(F)CC3)c(C(F)(F)F)nc2c1 [Compound 172, 5-Chloro-N-[2-(3,3-difluoroazetidin-1-yl)-2-oxoethyl]-3-[(4,4-difluorocyclohexyl)methyl]-2-(trifluoromethyl)imidazo[1,2-a]pyridine-7-carboxamide] | ≤ 100 nM | –
4 | Cc1cc(C(=O)NOC2CCOCC2)cc2nc(C(F)(F)F)c(CC3CCC(F)(F)CC3)n12 [Compound 72, 3-[(4,4-Difluorocyclohexyl)methyl]-5-methyl-N-(tetrahydro-2H-pyran-4-yloxy)-2-(trifluoromethyl)imidazo[1,2-a]pyridine-7-carboxamide] | ≤ 100 nM | –
5 | CC(F)(F)c1nc2cc(C(=O)NC3CCC4(CC3)COC4)c(Cl)cn2c1CC1CCC(F)(F)CC1 [Compound 127, 6-Chloro-3-[(4,4-difluorocyclohexyl)methyl]-2-(1,1-difluoroethyl)-N-(2-oxaspiro[3.5]nonan-7-yl)imidazo[1,2-a]pyridine-7-carboxamide] | ≤ 100 nM | –
6 | O=C(NC1CCOCC1)c1cc(CF)n2c(CC3CCC(F)(F)CC3)c(C(F)(F)F)nc2c1 [Compound 47, 3-[(4,4-Difluorocyclohexyl)methyl]-5-(fluoromethyl)-N-(tetrahydro-2H-pyran-4-yl)-2-(trifluoromethyl)imidazo[1,2-a]pyridine-7-carboxamide] | ≤ 100 nM | –
7 | Cc1cc(C(=O)NC2CCC(F)(F)CC2)cc2nc(C(C)(C)O)c(CC3CCC(F)(F)CC3)n12 [Compound 9, N-(4,4-Difluorocyclohexyl)-3-[(4,4-difluorocyclohexyl)methyl]-2-(2-hydroxypropan-2-yl)-5-methylimidazo[1,2-a]pyridine-7-carboxamide] | – | ≤ 100 nM
8 | N#Cc1cc(C(=O)NC23CCN(CC2)C3)cc2nc(C(F)(F)F)c(CC3CCC(F)(F)CC3)n12 [Compound 188, N-(1-Azabicyclo[2.2.1]heptan-4-yl)-5-cyano-3-[(4,4-difluorocyclohexyl)methyl]-2-(trifluoromethyl)imidazo[1,2-a]pyridine-7-carboxamide] | ≤ 100 nM | –
9 | COc1ccc(Cc2c(C(F)(F)F)nc3cc(C(=O)NC4CCOCC4)cc(C)n23)cc1 [Compound 209, 3-(4-Methoxybenzyl)-5-methyl-N-(tetrahydro-2H-pyran-4-yl)-2-(trifluoromethyl)imidazo[1,2-a]pyridine-7-carboxamide] | ≤ 100 nM | –
10 | CCOC(C)(C)c1nc2cc(C(=O)NC3CCOCC3)cc(C)n2c1CC1CCC(F)(F)CC1 [Compound 1, 3-[(4,4-Difluorocyclohexyl)methyl]-2-(2-ethoxypropan-2-yl)-5-methyl-N-(tetrahydro-2H-pyran-4-yl)imidazo[1,2-a]pyridine-7-carboxamide] | ≤ 100 nM | –
11 | O=C(CC1CCOCC1)NNC(=O)c1cc(Cl)n2c(CC3CCC(F)(F)CC3)c(C(F)(F)F)nc2c1 [Compound 143, 5-Chloro-3-[(4,4-difluorocyclohexyl)methyl]-N′-[2-(tetrahydro-2H-pyran-4-yl)acetyl]-2-(trifluoromethyl)imidazo[1,2-a]pyridine-7-carbohydrazide] | ≤ 100 nM | –
12 | CC(F)(F)c1nc2cc(C(=O)N[C@H]3C[C@@H]4CC[C@H]3O4)cc(C#N)n2c1Cc1ccc(Cl)cc1 [Compound 222, N-[(1R,2S,4S)-7-Oxabicyclo[2.2.1]heptan-2-yl]-3-(4-chlorobenzyl)-5-cyano-2-(1,1-difluoroethyl)imidazo[1,2-a]pyridine-7-carboxamide] | ≤ 100 nM | –
13 | CC1(C)CC(NC(=O)c2cc3nc(C(F)(F)F)c(CC4CCC(F)(F)CC4)n3c(Cl)c2Cl)CCO1 (stereo not shown) [Compound 205, 5,6-Dichloro-3-[(4,4-difluorocyclohexyl)methyl]-N-(2,2-dimethyltetrahydro-2H-pyran-4-yl)-2-(trifluoromethyl)imidazo[1,2-a]pyridine-7-carboxamide] | – | ≤ 100 nM
14 | N#Cc1cc(C(=O)N2C[C@H]3COC[C@@H](C2)C3=O)cc2nc(C(F)(F)F)c(CC3CCC(F)(F)CC3)n12 [Compound 210, 3-[(4,4-Difluorocyclohexyl)methyl]-7-[(1R,5S)-9-oxo-3-oxa-7-azabicyclo[3.3.1]nonane-7-carbonyl)-2-(trifluoromethyl)imidazo[1,2-a]pyridine-5-carbonitrile] | – | ≤ 100 nM
15 | Cc1c(C(=O)NC2CCOCC2)cc(C)n2c(CC3CCC(F)(F)CC3)c(C(F)(F)F)nc12 [Compound 166, 3-[(4,4-Difluorocyclohexyl)methyl]-5,8-dimethyl-N-(tetrahydro-2H-pyran-4-yl)-2-(trifluoromethyl)imidazo[1,2-a]pyridine-7-carboxamide] | ≤ 100 nM | –
16 | N#Cc1cc(C(=O)NOC2CCOCC2)cc2nc(C(F)(F)F)c(CC3CCC(F)(F)CC3)n12 [Compound 65] | ≤ 100 nM | –

Row | Structure (SMILES) | IC50 | IC50 [1]
17 | CC(F)(F)c1nc2cc(C(=O)NC3CCOCC3)cc(C=O)n2c1CC1CCC(F)(F)CC1 [Compound 158, 3-[(4,4-Difluorocyclohexyl)methyl]-2-(1,1-difluoroethyl)-5-formyl-N-(tetrahydro-2H-pyran-4-yl)imidazo[1,2-a]pyridine-7-carboxamide] | ≤ 100 nM | –
18 | O=C(NCCCn1ccnc1)c1cc(Cl)n2c(CC3CCC(F)(F)CC3)c(C(F)(F)F)nc2c1 [Compound 100, N-[3-(1H-Imidazol-1-yl)propyl]-5-chloro-3-[(4,4-difluorocyclohexyl)methyl]-2-(trifluoromethyl)imidazo[1,2-a]pyridine-7-carboxamide] | ≤ 100 nM | –
19 | CCOC(=O)C(=O)CNC(=O)c1cc(C)n2c(CC3CCC(F)(F)CC3)c(C(F)(F)F)nc2c1 [Compound 124, Ethyl 3-{3-[(4,4-difluorocyclohexyl)methyl]-5-methyl-2-(trifluoromethyl)imidazo[1,2-a]pyridine-7-carboxamide}-2-oxopropanoate] | ≤ 100 nM | –
20 | Cc1cc(C(=O)NC2CC(CO)(CO)C2)cc2nc(C(F)(F)F)c(CC3CCC(F)(F)CC3)n12 [Compound 80, N-[3,3-Bis(hydroxymethyl)cyclobutyl]-3-[(4,4-difluorocyclohexyl)methyl]-5-methyl-2-(trifluoromethyl)imidazo[1,2-a]pyridine-7-carboxamide] | ≤ 100 nM | –
21 | Cc1cc(C(O)c2nc3ccccc3n2C)cc2nc(C(F)(F)F)c(CC3CCC(F)(F)CC3)n12 (stereo not shown) [Compound 120, {3-[(4,4-Difluorocyclohexyl)methyl]-5-methyl-2-(trifluoromethyl)imidazo[1,2-a]pyridin-7-yl}(1-methyl-1H-benzo[d]imidazol-2-yl)methanol] | – | ≤ 100 nM
22 | O=C(NCCc1c[nH]cn1)c1cc(Cl)n2c(CC3CCC(F)(F)CC3)c(C(F)(F)F)nc2c1 [Compound 104] | ≤ 100 nM | –
23 | Cc1cc(C(=O)NC2CCCOCC2)cc2nc(C(F)(F)F)c(CC3CCC(F)(F)CC3)n12 (stereo not shown) [Compound 74, 3-[(4,4-Difluorocyclohexyl)methyl]-5-methyl-N-(oxepan-4-yl)-2-(trifluoromethyl)imidazo[1,2-a]pyridine-7-carboxamide] | ≤ 100 nM | –
24 | CC(C)(C)NC(=O)c1cc(Cl)n2c(CC3CCC(F)(F)CC3)c(C(F)(F)F)nc2c1 [Compound 220, N-tert-Butyl-5-chloro-3-[(4,4-difluorocyclohexyl)methyl]-2-(trifluoromethyl)imidazo[1,2-a]pyridine-7-carboxamide] | ≤ 100 nM | –
25 | Cc1cc(C(=O)NC2CC3(COC3)C2)cc2nc(C(F)(F)F)c(CC3CCC(F)(F)CC3)n12 [Compound 88, 3-[(4,4-Difluorocyclohexyl)methyl]-5-methyl-N-(2-oxaspiro[3.3]heptan-6-yl)-2-(trifluoromethyl)imidazo[1,2-a]pyridine-7-carboxamide] | ≤ 100 nM | –
26 | CC(C)(O)CNC(=O)c1cc(C#N)n2c(CC3CCC(F)(F)CC3)c(C(F)(F)F)nc2c1 [Compound 51, 5-Cyano-3-[(4,4-difluorocyclohexyl)methyl]-N-(2-hydroxy-2-methylpropyl)-2-(trifluoromethyl)imidazo[1,2-a]pyridine-7-carboxamide] | ≤ 100 nM | –
27 | CC(C)(CNC(=O)c1cc(C#N)n2c(CC3CCC(F)(F)CC3)c(C(F)(F)F)nc2c1)COC=O [Compound 157, 3-(5-Cyano-3-[(4,4-difluorocyclohexyl)methyl]-2-(trifluoromethyl)imidazo[1,2-a]pyridine-7-carboxamide)-2,2-dimethylpropyl formate] | ≤ 100 nM | –
28 | CN(C)C(C)(C)CNC(=O)c1cc(C#N)n2c(CC3CCC(F)(F)CC3)c(C(F)(F)F)nc2c1 [Compound 156, 5-Cyano-3-[(4,4-difluorocyclohexyl)methyl]-N-[2-(dimethylamino)-2-methylpropyl]-2-(trifluoromethyl)imidazo[1,2-a]pyridine-7-carboxamide] | ≤ 100 nM | –
29 | O=C(NC1CCOCC1)c1cc(C(F)F)n2c(CC3CCC(F)(F)CC3)c(C(F)(F)F)nc2c1 [Compound 48, 3-[(4,4-Difluorocyclohexyl)methyl]-5-(difluoromethyl)-N-(tetrahydro-2H-pyran-4-yl)-2-(trifluoromethyl)imidazo[1,2-a]pyridine-7-carboxamide] | ≤ 100 nM | –
30 | Cc1cc(C(=O)Nc2ccccc2)cc2nc(C(C)(C)O)c(CC3CCC(F)(F)CC3)n12 [Compound 8, 3-[(4,4-Difluorocyclohexyl)methyl]-2-(2-hydroxypropan-2-yl)-5-methyl-N-phenylimidazo[1,2-a]pyridine-7-carboxamide] | ≤ 100 nM | –
31 | N#Cc1cc(C(=O)NC2CCOCC2)cc2nc(C(F)(F)F)c(Cc3ccc(Cl)cc3)n12 [Compound 211, 3-(4-Chlorobenzyl)-5-cyano-N-(tetrahydro-2H-pyran-4-yl)-2-(trifluoromethyl)imidazo[1,2-a]pyridine-7-carboxamide] | ≤ 100 nM | –
